Measurements reported in PubChem BioAssay AID2060332 (Molecular Pharmacology Branch, DTP, NCI, 2025).
Where “and” joins values, the source holds several entries; their conditions need not be identical. Equal values may be shown once.

System: LG0567-F671-PDC multi-cell spheroid viability
Assay: Anticancer human tumor LG0567-F671-PDC patient-derived lung adenocarcinoma cell line growth inhibition [IpAb]
Conditions: for viability, T/C: stronger effect = lower value
Text: Combinatorial screen of targeted agents with ipatasertib and abemaciclib in multi-cell type tumor spheroids
A high-throughput screen of multi-cell type tumor spheroids was designed to identify active combinations of targeted small molecules and ipatasertib or abemaciclib. Complex spheroids include a stromal component modeled by human endothelial cells (HUVEC) and fibroblasts modeled by human mesenchymal stem cells (MSCs). The concentration ranges selected for each drug and investigational agent were based upon clinically achievable concentrations if the clinical Cmax of the agent was known.
Compounds. The drugs and investigational agents: ipatasertib (NSC767898), abemaciclib(NSC768073), selumetinib (NSC741078), trametinib (758246), adavosertib (NSC754352), everolimus (NSC733504), sapanisertib (NSC764658), vemurafenib (NSC761431), venetoclax (NSC766270), copanlisib (NSC809693), apelisib (NSC765974), palbociblib (NSC758247), vemurafenib (NSC761431), dabrafenib (NSC764134), ravoxertinib (NSC781343), BMS-387032 (NSC767048), sotorasib (NSC818433), talazoparib (NSC767125) and afursertib (NSC778305), were obtained from the National Cancer Institute (NCI) Developmental Therapeutics Program Chemical Repository. The FDA-approved anticancer drug set is available from the NCI Developmental Therapeutics Program. […] The stock solutions were prepared in dimethyl sulfoxide (DMSO, Sigma-Aldrich, St. Louis, MO, cat. D2650) at 800-fold the tested concentration and stored at -70 degrees C prior to their use. All drugs and investigational agents were tested over a range starting from a high concentration at or near the clinical Cmax and decreasing in half-log increments. If the clinical Cmax for an agent had not been determined, the highest concentration tested was 10 microM.
NCI60 Cell Culture. NCI60 cell lines were obtained from the NCI Developmental Therapeutics Program Tumor Repository. For each lot of cells, the Repository performed Applied Biosystems AmpFLSTR Identifiler testing with PCR amplification to confirm consistency with the published Identifier STR profile for each cell line. Cells were kept in continuous culture for no more than 20 passages. The optimal seeding densities for each of the cell lines at each time point assessed were determined prior to performing the concentration response studies. Briefly, the NCI60 human tumor lines were grown as monolayers in RPMI 1640 medium supplemented with 10% FBS and 2 mmol/L L-glutamine.
An additional 9 lines were from the NCI60 cell line panel including MDA-MB-231 breast carcinoma, MDA-MB-468 breast carcinoma, MCF7 breast carcinoma, Hs578T breast carcinoma, MALME-3M melanoma, SK-MEL-2 melanoma, SK-OV-3 ovarian carcinoma, DU-145 prostate carcinoma, PC-3 prostate carcinoma, all cell lines along with major genetic alterations are listed on Table 2. Pooled donor human umbilical vein endothelial cells (HUVEC, Lonza, cat. CC-2519) and human mesenchymal stem cells (hMSC, Lonza, cat. PT-2501) were purchased from Lonza (Walkersville, MD).
PDMR cell lines were grown in complete medium (DC medium): Dulbecco's modified Eagle's medium (DMEM)/F12 supplemented with 5% fetal bovine serum (FBS), 2 mM L-glutamine, 100 U/mL penicillin and 100 µg/ml streptomycin, 0.4 µg/ml hydrocortisone, 10 ng/ml epidermal growth factor (EGF) recombinant human protein, 24 µg/mL adenine, and 0.1 mg/mL primocin. During culture from frozen stock vials, PDMR cells were cultured in the same medium containing 10 µM Y-27632 (see Table 3). The PDCs were cultured in complete DMEM/F12 media without 10 microM Y-27632 dihydrochloride for at least two passages prior to the screen. The pooled donor HUVEC and hMSC were cultured in endothelial cell growth medium 2 (PromoCell, Heidelberg, Germany, cat. C-22011) and mesenchymal stem cell growth medium 2 (PromoCell, cat. C-28009), respectively. For all experiments, HUVEC and hMSC were used at passages </=5.
[…]
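Also: viability read after 7 days of drug exposure.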
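For viability, T/C in this document: 100% = DMSO vehicle control luminescence.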

Compound: Cn1cnc2c(F)c(Nc3ccc(Br)cc3Cl)c(C(=O)NOCCO)cc21
- viability, T/C (compound 0.00949 µM): 54.7% and 48.5%
- viability, T/C (compound 0.03 µM): 33% and 42.6%
- viability, T/C (compound 0.0949 µM): 27.1% and 34.2%
- viability, T/C (compound 0.3 µM): 25.2% and 24.2%
- viability, T/C (compound 0.949 µM): 18.1% and 21.6%
- viability, T/C (compound 3 µM): 16.5% and 16%
- IC50 (curve of compound): 11.9 nM and < 9.49 nM

Compound: Cn1ncc(Cl)c1-c1cc(C(=O)NC(CN)Cc2cccc(F)c2)sc1Cl (stereo not drawn)
- viability, T/C (compound 0.0316 µM): 111% and 97.3%
- viability, T/C (compound 0.1 µM): 93% and 66%
- viability, T/C (compound 0.316 µM): 52.6% and 62.1%
- viability, T/C (compound 1 µM): 82.9% and 63%
- viability, T/C (compound 3.16 µM): 53% and 45.6%
- viability, T/C (compound 10 µM): 0.27% and 0.21%
- IC50 (curve of compound): 2470 nM and 1660 nM

Compound: Cn1nccc1Nc1nccc(-c2ccn(C(CO)c3ccc(Cl)c(F)c3)c(=O)c2)n1 (stereo not drawn)
- viability, T/C (compound 0.0316 µM): 96.4% and 76.2%
- viability, T/C (compound 0.1 µM): 50.8% and 58.4%
- viability, T/C (compound 0.316 µM): 45% and 40.1%
- viability, T/C (compound 1 µM): 41.1% and 29.3%
- viability, T/C (compound 3.16 µM): 33.5% and 35.7%
- viability, T/C (compound 10 µM): 36.3% and 34.5%
- IC50 (curve of compound): 138 nM and 166 nM

Compound: Cn1ncnc1[C@H]1c2n[nH]c(=O)c3cc(F)cc(c23)N[C@@H]1c1ccc(F)cc1
- viability, T/C (compound 0.000316 µM): 113% and 103%
- viability, T/C (compound 0.001 µM): 89.9% and 84.2%
- viability, T/C (compound 0.00316 µM): 96.3% and 81.5%
- viability, T/C (compound 0.01 µM): 69.8% and 66%
- viability, T/C (compound 0.0316 µM): 42.7% and 73.8%
- viability, T/C (compound 0.1 µM): 65.2% and 30.4%
- IC50 (curve of compound): > 100 nM and 49.1 nM

Compound: Cn1cnc2c(F)c(Nc3ccc(Br)cc3Cl)c(C(=O)NOCCO)cc21 + CC(C)NCC(C(=O)N1CCN(c2ncnc3c2C(C)CC3O)CC1)c1ccc(Cl)cc1
- IC50 (curve of first compound, second compound 0.1 µM): 15.7 nM
- IC50 (curve of first compound, second compound 0.316 µM): < 9.49 nM
- IC50 (curve of first compound, second compound 1 µM): < 9.49 nM
- IC50 (curve of first compound, second compound 3.16 µM): < 9.49 nM
- IC50 (curve of first compound, second compound 10 µM): < 9.49 nM
- viability, T/C (second compound 0.1 µM, first compound 0.00949 µM): 59.6%
- viability, T/C (second compound 0.1 µM, first compound 0.03 µM): 36.4%
- viability, T/C (second compound 0.1 µM, first compound 0.0949 µM): 29.3%
- viability, T/C (second compound 0.1 µM, first compound 0.3 µM): 18.2%
- viability, T/C (second compound 0.1 µM, first compound 0.949 µM): 18.6%
- viability, T/C (second compound 0.1 µM, first compound 3 µM): 11.1%
- viability, T/C (second compound 0.316 µM, first compound 0.00949 µM): 43.4%
- viability, T/C (second compound 0.316 µM, first compound 0.03 µM): 32.4%
- viability, T/C (second compound 0.316 µM, first compound 0.0949 µM): 23.2%
- viability, T/C (second compound 0.316 µM, first compound 0.3 µM): 18%
- viability, T/C (second compound 0.316 µM, first compound 0.949 µM): 14.3%
- viability, T/C (second compound 0.316 µM, first compound 3 µM): 5.52%
- viability, T/C (second compound 1 µM, first compound 0.00949 µM): 34.6%
- viability, T/C (second compound 1 µM, first compound 0.03 µM): 32.3%
- viability, T/C (second compound 1 µM, first compound 0.0949 µM): 23.9%
- viability, T/C (second compound 1 µM, first compound 0.3 µM): 21.3%
- viability, T/C (second compound 1 µM, first compound 0.949 µM): 10.7%
- viability, T/C (second compound 1 µM, first compound 3 µM): 8.24%
- viability, T/C (second compound 3.16 µM, first compound 0.00949 µM): 44.9%
- viability, T/C (second compound 3.16 µM, first compound 0.03 µM): 43.4%
- viability, T/C (second compound 3.16 µM, first compound 0.0949 µM): 36.4%
- viability, T/C (second compound 3.16 µM, first compound 0.3 µM): 16.4%
- viability, T/C (second compound 3.16 µM, first compound 0.949 µM): 14.8%
- viability, T/C (second compound 3.16 µM, first compound 3 µM): 7.66%
- viability, T/C (second compound 10 µM, first compound 0.00949 µM): 43.4%
- viability, T/C (second compound 10 µM, first compound 0.03 µM): 28.7%
- viability, T/C (second compound 10 µM, first compound 0.0949 µM): 26.7%
- viability, T/C (second compound 10 µM, first compound 0.3 µM): 21.5%
- viability, T/C (second compound 10 µM, first compound 0.949 µM): 11.9%
- viability, T/C (second compound 10 µM, first compound 3 µM): 8.12%
